Tested on: GA-primed murine splenocytes
Test: Tolerance method for assessing process variability

## glatiramer acetate [GA]
Probe ILMN_2534151
  AVG expression IRGB10: 9.691
Probe ILMN_2537948
  AVG expression LOC624610: 8.96
Probe ILMN_2540103
  AVG expression LOC666559: 10.7199
Probe ILMN_2543417
  AVG expression AUH: 8.451
Probe ILMN_2545445
  AVG expression HIPK2: 7.332
Probe ILMN_2546272
  AVG expression GNG12: 9.731
Probe ILMN_2548681
  AVG expression 4930426D05RIK: 7.1
Probe ILMN_2553041
  AVG expression A130093I21RIK: 7.932
Probe ILMN_2560567
  AVG expression A630006E02RIK: 9.937
Probe ILMN_2571414
  AVG expression NDR3: 6.289
Probe ILMN_2573826
  AVG expression GAD1: 6.891
Probe ILMN_2578341
  AVG expression B930094H08R1K: 6.497
Probe ILMN_2581681
  AVG expression D530007E13RIK: 8.386
Probe ILMN_2588216
  AVG expression IL8RA: 6.682
Probe ILMN_2589401
  AVG expression PLTP: 7.226
Probe ILMN_2591156
  AVG expression IL27RA: 8.583
Probe ILMN_2591342
  AVG expression BC021614: 7.519
Probe ILMN_2591754
  AVG expression QPRT: 7.245
Probe ILMN_2592486
  AVG expression genericLYRP1: 7.785
Probe ILMN_2592953
  AVG expression SCG5: 6.961
Probe ILMN_2593143
  AVG expression DOCK10: 11.3
Probe ILMN_2593554
  AVG expression IGTP: 12.78
Probe ILMN_2593787
  AVG expression KCNK13: 6.48
Probe ILMN_2594521
  AVG expression NSDHL: 8.078
Probe ILMN_2594525
  AVG expression NSDHL: 8.365
Probe ILMN_2595732
  AVG expression LOC100046232: 11.55
Probe ILMN_2596596
  AVG expression RGS1: 8.683
Probe ILMN_2599719
  AVG expression SLC44A2: 11.36
Probe ILMN_2600421
  AVG expression MPO: 7.594
Probe ILMN_2600928
  AVG expression OVGP1: 6.54
Probe ILMN_2601453
  AVG expression A130092J06RIK: 10.81
Probe ILMN_2602899
  AVG expression CREM: 7.714
Probe ILMN_2604029
  AVG expression KLF2: 11.34
Probe ILMN_2605453
  AVG expression RANBP10: 9.654
Probe ILMN_2605858
  AVG expression AI646023: 6.049
Probe ILMN_2606072
  AVG expression AGFG1: 9.007
Probe ILMN_2606162
  AVG expression PDLIM4: 9.727
Probe ILMN_2606180
  AVG expression ACOT7: 9.205
Probe ILMN_2606825
  AVG expression CMAH: 7.634
Probe ILMN_2609813
  AVG expression CHI3L1: 9.339
Probe ILMN_2611450
  AVG expression IFT172: 8.856
Probe ILMN_2611532
  AVG expression SLC25A19: 9.008
Probe ILMN_2611755
  AVG expression SERPINB6B: 8.188
Probe ILMN_2612125
  AVG expression ARHGEF18: 10.09
Probe ILMN_2614161
  AVG expression LSS: 9.397
Probe ILMN_2614889
  AVG expression B3GNT8: 8.954
Probe ILMN_2615096
  AVG expression DPP4: 9.69
Probe ILMN_2617468
  AVG expression CHAC1: 8.051
Probe ILMN_2618148
  AVG expression C330008K14RIK: 10.14
Probe ILMN_2618918
  AVG expression SLC2A6: 10.76
Probe ILMN_2619107
  AVG expression LGALS1: 10.71
Probe ILMN_2619200
  AVG expression ERAF: 8.714
Probe ILMN_2619316
  AVG expression PRNP: 9.719
Probe ILMN_2619408
  AVG expression ATF3: 6.791
Probe ILMN_2625377
  AVG expression RGS1: 9.769
Probe ILMN_2628174
  AVG expression ACSS1: 10.26
Probe ILMN_2628178
  AVG expression SOCS2: 9.548
Probe ILMN_2629112
  AVG expression ASAH3L: 6.995
Probe ILMN_2629191
  AVG expression CPM: 9.17
Probe ILMN_2630993
  AVG expression PPAP2B: 7.507
Probe ILMN_2631610
  AVG expression TMEM71: 6.536
Probe ILMN_2631752
  AVG expression CTLA4: 8.62
Probe ILMN_2632264
  AVG expression ACOT7: 11.36
Probe ILMN_2634796
  AVG expression SOCS1: 7.681
Probe ILMN_2635272
  AVG expression IGH-VJ558: 13.22
Probe ILMN_2636403
  AVG expression AXUD1: 10.85
Probe ILMN_2636536
  AVG expression PLA2G12A: 9.884
Probe ILMN_2638491
  AVG expression SLAMF7: 8.628
Probe ILMN_2639036
  AVG expression HSPD1: 9.439
Probe ILMN_2641360
  AVG expression AK2: 10.39
Probe ILMN_2642462
  AVG expression GTF2I: 11.52
Probe ILMN_2642913
  AVG expression EMP1: 7.96
Probe ILMN_2643513
  AVG expression ASNS: 9.742
Probe ILMN_2644350
  AVG expression THY1: 11.24
Probe ILMN_2645275
  AVG expression MVD: 9.423
Probe ILMN_2646322
  AVG expression SAMSN1: 11.87
Probe ILMN_2646625
  AVG expression JUN: 8.291
Probe ILMN_2646891
  AVG expression CENTD1: 10.77
Probe ILMN_2648454
  AVG expression SIGLECG: 9.552
Probe ILMN_2648669
  AVG expression GPNMB: 7.401
Probe ILMN_2650255
  AVG expression MAN2A2: 6.819
Probe ILMN_2650739
  AVG expression ARHGAP9: 9.141
Probe ILMN_2650953
  AVG expression SLC12A7: 6.744
Probe ILMN_2651886
  AVG expression genericK1: 11.36
Probe ILMN_2652500
  AVG expression LRG1: 6.12
Probe ILMN_2652857
  AVG expression IFI47: 11.72
Probe ILMN_2654074
  AVG expression SESN1: 10.45
Probe ILMN_2656854
  AVG expression MYO6: 8.468
Probe ILMN_2658501
  AVG expression IFITM3: 11.43
Probe ILMN_2658878
  AVG expression TG: 7.479
Probe ILMN_2658961
  AVG expression DGKA: 11.07
Probe ILMN_2659739
  AVG expression IL7R: 6.443
Probe ILMN_2660182
  AVG expression ACOT7: 8.55
Probe ILMN_2660837
  AVG expression ST6GALNAC4: 8.481
Probe ILMN_2661185
  AVG expression SCML4: 8.584
Probe ILMN_2662097
  AVG expression RAB35: 11.43
Probe ILMN_2662387
  AVG expression LMNA: 8.27
Probe ILMN_2663249
  AVG expression SLAMF9: 8.243
Probe ILMN_2664224
  AVG expression EPHX1: 9.837
Probe ILMN_2664726
  AVG expression 3110013H01RIK: 8.045
Probe ILMN_2665545
  AVG expression RIN3: 9.015
Probe ILMN_2666272
  AVG expression HEMK1: 9.174
Probe ILMN_2668333
  AVG expression PRG4: 5.989
Probe ILMN_2668509
  AVG expression HP: 7.287
Probe ILMN_2668510
  AVG expression HP: 7.507
Probe ILMN_2669714
  AVG expression CTSA: 9.205
Probe ILMN_2670778
  AVG expression KIF1B: 8.422
Probe ILMN_2673233
  AVG expression PFKP: 8.097
Probe ILMN_2675922
  AVG expression 2310047A01RIK: 7.606
Probe ILMN_2676543
  AVG expression GRIFIN: 6.233
Probe ILMN_2678127
  AVG expression RNF144A: 7.59
Probe ILMN_2678431
  AVG expression MNS1: 8.22
Probe ILMN_2678724
  AVG expression DUSP10: 8.26
Probe ILMN_2678726
  AVG expression RASGRP2: 6.734
Probe ILMN_2680827
  AVG expression IL7R: 8.445
Probe ILMN_2682162
  AVG expression BCL2: 8.675
Probe ILMN_2684600
  AVG expression NALP6: 6.205
Probe ILMN_2685023
  AVG expression HMHA1: 11.42
Probe ILMN_2685392
  AVG expression CCR5: 7.052
Probe ILMN_2685393
  AVG expression CCR5: 7.202
Probe ILMN_2685712
  AVG expression IFNG: 11.16
Probe ILMN_2687652
  AVG expression PRM1: 6.849
Probe ILMN_2689401
  AVG expression MCOLN2: 7.5921
Probe ILMN_2690241
  AVG expression PKIB: 7.745
Probe ILMN_2690460
  AVG expression JAKMIP1: 9.597
Probe ILMN_2691014
  AVG expression KLHL14: 6.305
Probe ILMN_2692554
  AVG expression 9330186A19RIK: 6.749
Probe ILMN_2692615
  AVG expression TGM2: 8.055
Probe ILMN_2692960
  AVG expression ERO1LB: 10.32
Probe ILMN_2693679
  AVG expression CCDC125: 7.065
Probe ILMN_2695047
  AVG expression PNPLA7: 7.637
Probe ILMN_2695158
  AVG expression KIFC2: 6.733
Probe ILMN_2696491
  AVG expression PHF11: 9.238
Probe ILMN_2696492
  AVG expression PHF11: 9.454
Probe ILMN_2696609
  AVG expression MSCP: 8.264
Probe ILMN_2696610
  AVG expression SLC25A37: 8.278
Probe ILMN_2697415
  AVG expression CD3D: 11.45
Probe ILMN_2698519
  AVG expression HIST1H3H: 8.014
Probe ILMN_2699531
  AVG expression RGS10: 9.937
Probe ILMN_2699898
  AVG expression ITGAE: 7.502
Probe ILMN_2700168
  AVG expression CCND2: 10.82
Probe ILMN_2700354
  AVG expression DENND5B: 7.911
Probe ILMN_2700689
  AVG expression IBRDC3: 9.29
Probe ILMN_2703182
  AVG expression LGALS7: 6.931
Probe ILMN_2703563
  AVG expression STAC2: 6.876
Probe ILMN_2703829
  AVG expression FCRLA: 11.55
Probe ILMN_2705878
  AVG expression LIMD2: 8.037
Probe ILMN_2706231
  AVG expression SYNGR2: 11.42
Probe ILMN_2706232
  AVG expression SYNGR2: 11.09
Probe ILMN_2706514
  AVG expression LOC100046608: 8.612
Probe ILMN_2707941
  AVG expression GPR83: 9.205
Probe ILMN_2710905
  AVG expression 5100A8: 12.62
Probe ILMN_2711172
  AVG expression IRGM1: 7.157
Probe ILMN_2711948
  AVG expression LOC100047619: 10.95
Probe ILMN_2712867
  AVG expression TIMP2: 6.749
Probe ILMN_2712986
  AVG expression CHI3L3: 7.589
Probe ILMN_2715042
  AVG expression SDC3: 9.146
Probe ILMN_2716511
  AVG expression SLC12A6: 9.952
Probe ILMN_2716622
  AVG expression MAPK11: 8.853
Probe ILMN_2717176
  AVG expression RGL1: 7.561
Probe ILMN_2717975
  AVG expression TCF7: 8.216
Probe ILMN_2718330
  AVG expression CISH: 11.35
Probe ILMN_2721571
  AVG expression SLAMF1: 9.069
Probe ILMN_2722784
  AVG expression CD3G: 10.75
Probe ILMN_2724465
  AVG expression CCR8: 6.962
Probe ILMN_2724570
  AVG expression MAPK12: 6.86
Probe ILMN_2725259
  AVG expression IL2: 7.49
Probe ILMN_2725402
  AVG expression NSDHL: 8.035
Probe ILMN_2725414
  AVG expression CD9: 8.904
Probe ILMN_2725448
  AVG expression SYTL3: 7.03
Probe ILMN_2725927
  AVG expression SERPINA3G: 13.9
Probe ILMN_2726471
  AVG expression EN2: 6.583
Probe ILMN_2728270
  AVG expression B4GALNT1: 10.26
Probe ILMN_2729252
  AVG expression 5830431A10R1K: 7.881
Probe ILMN_2729958
  AVG expression HIST1H3D: 9.844
